Experimental data: patent publication US7138361B2, “Herbicidal heterocycles” (E. I. du Pont de Nemours and Company, priority 2000, dated 2006)

Columns and labels:
Experiment in all cases: Test C preemergence
Type in all cases: in vivo
[1] = tested on: Sunflower; conditions: Rate 250 g/ha, scale 0 to 100, 0 no effect, 100 complete control
[2] = tested on: Sunflower; conditions: Rate 62 g/ha, scale 0 to 100
[3] = tested on: Nightshade
[4] = tested on: morningglory (Ipomoea hederacea); conditions: for Plant response rating (0 to 100), Morningglory: Rate 500 g/ha, visual evaluation after 12 to 14 days
Summary of the method: (§1)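 Plants held in greenhouse for 12–14 days post-application are scored by eye against controls on a 0–100 control scale. Application timing: preemergence on sown seed, or postemergence on 2–18 cm plants.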

[5] = tested on: corn (Zea mays); conditions: for Plant response rating (0 to 100), Corn: Rate 500 g/ha, visual evaluation after 12 to 14 days
Summary of the method: as §1

[6] = tested on: giant foxtail (Setaria faberii); conditions: for Plant response rating (0 to 100), Foxtail, Giant: Rate 500 g/ha, visual evaluation after 12 to 14 days
Summary of the method: as §1

[7] = tested on: lambsquarters (Chenopodium album); conditions: for Plant response rating (0 to 100), Lambsquarters: Rate 500 g/ha, visual evaluation after 12 to 14 days
Summary of the method: as §1

[8] = tested on: bermudagrass (Cynodon dactylon); conditions: for Plant response rating (0 to 100 where 0 is no effect and 100 is complete control), Bermudagrass: Rate 500 g/ha, visual evaluation after 12 to 14 days
Summary of the method: as §1

[9] = tested on: soybean (Glycine max); conditions: for Plant response rating (0 to 100), Soybean: Rate 500 g/ha, visual evaluation after 12 to 14 days
Summary of the method: as §1

[10] = tested on: woolly cupgrass (Eriochloa villosa); conditions: for Plant response rating (0 to 100), Cupgrass, Woolly: Rate 500 g/ha, visual evaluation after 12 to 14 days
Summary of the method: as §1

[11] = tested on: cocklebur (Xanthium strumarium); conditions: for Plant response rating (0 to 100), Cocklebur: Rate 500 g/ha, visual evaluation after 12 to 14 days
Summary of the method: as §1

[12] = tested on: yellow nutsedge (Cyperus esculentus); conditions: for Plant response rating (0 to 100), Nutsedge: Rate 500 g/ha, visual evaluation after 12 to 14 days
Summary of the method: as §1

[13] = tested on: kochia (Kochia scoparia); conditions: for Plant response rating (0 to 100), Kochia: Rate 500 g/ha, visual evaluation after 12 to 14 days
Summary of the method: as §1

[14] = tested on: Surinam grass (Brachiaria decumbens); conditions: for Plant response rating (0 to 100), Surinam grass: Rate 500 g/ha, visual evaluation after 12 to 14 days
Summary of the method: as §1

[15] = tested on: velvetleaf (Abutilon theophrasti); conditions: for Plant response rating (0 to 100), Velvetleaf: Rate 500 g/ha, visual evaluation after 12 to 14 days
Summary of the method: as §1

[16] = tested on: Sunflower; conditions: Rate 125 g/ha; scale 0 to 100, 0 no effect, 100 complete control
[17] = tested on: common ragweed (Ambrosia elatior); conditions: for Plant response rating (0 to 100), Ragweed, Common: Rate 500 g/ha, visual evaluation after 12 to 14 days
Summary of the method: as §1

[18] = tested on: johnsongrass (Sorghum halepense); conditions: for Plant response rating (0 to 100), Johnsongrass: Rate 500 g/ha, visual evaluation after 12 to 14 days
Summary of the method: as §1

[19] = tested on: crabgrass (Digitaria sanguinalis); conditions: for Plant response rating (0 to 100), Crabgrass: Rate 500 g/ha, visual evaluation after 12 to 14 days
Summary of the method: as §1

[20] = tested on: goosegrass (Eleusine indica); conditions: for Plant response rating (0 to 100), Goosegrass: Rate 500 g/ha, visual evaluation after 12 to 14 days
Summary of the method: as §1

[21] = tested on: pigweed (Amaranthus retroflexus); conditions: for Plant response rating (0 to 100), Pigweed: Rate 500 g/ha, visual evaluation after 12 to 14 days
Summary of the method: as §1

[22] = tested on: Nightshade; conditions: Rate 500 g/ha, visual evaluation after 12 to 14 days
[23] = Rate 125 g/ha, scale 0 to 100, 0 no effect, 100 complete control
[24] = Rate 250 g/ha, scale 0 to 100, 0 no effect, 100 complete control
[25] = preemergence, Rate 62 g/ha, scale 0 to 100
[26] = preemergence, Rate 250 g/ha, scale 0 to 100, 0 no effect, 100 complete control

CC(C)(C)c1ccn(C2OCN(c3cccc(OC(F)F)c3)C2=O)n1 (stereo not drawn) [Compound 133]
0: Plant response rating, Sunflower [1] | Plant response rating, Sunflower [2] | Plant response rating, Nightshade ([3]; Rate 62 g/ha, scale 0 to 100) | Plant response rating, Nightshade [3, 23] | Plant response rating, Morningglory [4, 23] | Plant response rating, Morningglory [4, 25] | Plant response rating, Soybean [9, 23] | Plant response rating, Soybean [9, 25] | Plant response rating (0 to 100), Soybean ([9]; preemergence) | Plant response rating, Soybean [9, 26] | Plant response rating, Cocklebur [11, 23] | Plant response rating, Cocklebur [11, 25] | Plant response rating (0 to 100), Cocklebur ([11]; preemergence) | Plant response rating, Cocklebur [11, 26] | Plant response rating, Velvetleaf [15, 25] | Plant response rating, Sunflower [16] | Plant response rating, Ragweed, Common [17, 23] | Plant response rating, Ragweed, Common [17, 25] | Plant response rating (0 to 100), Ragweed, Common ([17]; preemergence) | Plant response rating, Ragweed, Common [17, 26]
50: Plant response rating, Pigweed [21, 25]
80: Plant response rating, Johnsongrass [18, 25]
100: Plant response rating, Corn [5, 25] | Plant response rating (0 to 100), Corn ([5]; preemergence) | Plant response rating, Corn [5, 26] | Plant response rating, Foxtail, Giant [6, 23] | Plant response rating (0 to 100), Foxtail, Giant ([6]; preemergence) | Plant response rating, Foxtail, Giant [6, 26] | Plant response rating, Lambsquarters [7, 23] | Plant response rating, Lambsquarters [7, 25] | Plant response rating (0 to 100), Lambsquarters ([7]; preemergence) | Plant response rating, Lambsquarters [7, 26] | Plant response rating, Bermudagrass [8, 23] | Plant response rating, Bermudagrass [8, 25] | Plant response rating (0 to 100 where 0 is no effect and 100 is complete control), Bermudagrass ([8]; preemergence) | Plant response rating, Bermudagrass [8, 26] | Plant response rating, Cupgrass, Woolly [10, 23] | Plant response rating, Cupgrass, Woolly [10, 25] | Plant response rating (0 to 100), Cupgrass, Woolly ([10]; preemergence) | Plant response rating, Cupgrass, Woolly [10, 26] | Plant response rating, Kochia [13, 23] | Plant response rating, Kochia [13, 25] | Plant response rating (0 to 100), Kochia ([13]; preemergence) | Plant response rating, Kochia [13, 26] | Plant response rating, Surinam grass [14, 23] | Plant response rating, Surinam grass [14, 25] | Plant response rating (0 to 100), Surinam grass ([14]; preemergence) | Plant response rating, Surinam grass [14, 26] | Plant response rating, Johnsongrass [18, 23] | Plant response rating (0 to 100), Johnsongrass ([18]; preemergence) | Plant response rating, Johnsongrass [18, 26] | Plant response rating, Crabgrass [19, 23] | Plant response rating, Crabgrass [19, 25] | Plant response rating (0 to 100), Crabgrass ([19]; preemergence) | Plant response rating, Crabgrass [19, 26] | Plant response rating, Goosegrass [20, 23] | Plant response rating, Goosegrass [20, 25] | Plant response rating (0 to 100), Goosegrass ([20]; preemergence) | Plant response rating, Goosegrass [20, 26] | Plant response rating, Pigweed [21, 23] | Plant response rating (0 to 100), Pigweed ([21]; preemergence) | Plant response rating, Pigweed [21, 26]
90: Plant response rating, Foxtail, Giant [6, 25] | Plant response rating (0 to 100), Nutsedge ([12]; preemergence) | Plant response rating, Nutsedge [12, 26] | Plant response rating (0 to 100), Nightshade [22]
30: Plant response rating (0 to 100), Morningglory ([4]; preemergence) | Plant response rating (0 to 100), Velvetleaf ([15]; preemergence)
20: Plant response rating, Nightshade [3, 24] | Plant response rating, Morningglory [4, 26] | Plant response rating, Velvetleaf [15, 23] | Plant response rating, Velvetleaf [15, 26]
70: Plant response rating, Nutsedge [12, 25]

CCC(C)c1ccn(C2OCN(c3cccc(OC(F)F)c3)C2=O)n1 (stereo not drawn) [Compound 134]
60: Plant response rating, Nutsedge [12, 25]
30: Plant response rating, Nightshade [3, 24]
40: Plant response rating (0 to 100), Ragweed, Common ([17]; preemergence)
20: Plant response rating, Corn [5, 23] | Plant response rating (0 to 100), Soybean ([9]; preemergence) | Plant response rating, Velvetleaf [15, 23] | Plant response rating, Velvetleaf [15, 25] | Plant response rating (0 to 100), Velvetleaf ([15]; preemergence) | Plant response rating, Velvetleaf [15, 26]
10: Plant response rating, Nightshade [3, 23]
0: Plant response rating, Sunflower [1] | Plant response rating, Sunflower [2] | Plant response rating, Nightshade ([3]; Rate 62 g/ha, scale 0 to 100) | Plant response rating, Morningglory [4, 23] | Plant response rating, Morningglory [4, 25] | Plant response rating (0 to 100), Morningglory ([4]; preemergence) | Plant response rating, Morningglory [4, 26] | Plant response rating, Soybean [9, 23] | Plant response rating, Soybean [9, 25] | Plant response rating, Soybean [9, 26] | Plant response rating, Cocklebur [11, 23] | Plant response rating, Cocklebur [11, 25] | Plant response rating (0 to 100), Cocklebur ([11]; preemergence) | Plant response rating, Cocklebur [11, 26] | Plant response rating, Sunflower [16] | Plant response rating, Ragweed, Common [17, 23] | Plant response rating, Ragweed, Common [17, 25] | Plant response rating, Ragweed, Common [17, 26]
90: Plant response rating, Foxtail, Giant [6, 25] | Plant response rating, Nutsedge [12, 26] | Plant response rating (0 to 100), Nightshade [22]
70: Plant response rating, Nutsedge [12, 23]
100: Plant response rating (0 to 100), Corn ([5]; preemergence) | Plant response rating, Corn [5, 26] | Plant response rating, Foxtail, Giant [6, 23] | Plant response rating (0 to 100), Foxtail, Giant ([6]; preemergence) | Plant response rating, Foxtail, Giant [6, 26] | Plant response rating, Lambsquarters [7, 23] | Plant response rating, Lambsquarters [7, 25] | Plant response rating (0 to 100), Lambsquarters ([7]; preemergence) | Plant response rating, Lambsquarters [7, 26] | Plant response rating, Bermudagrass [8, 23] | Plant response rating, Bermudagrass [8, 25] | Plant response rating (0 to 100 where 0 is no effect and 100 is complete control), Bermudagrass ([8]; preemergence) | Plant response rating, Bermudagrass [8, 26] | Plant response rating, Cupgrass, Woolly [10, 23] | Plant response rating, Cupgrass, Woolly [10, 25] | Plant response rating (0 to 100), Cupgrass, Woolly ([10]; preemergence) | Plant response rating, Cupgrass, Woolly [10, 26] | Plant response rating (0 to 100), Nutsedge ([12]; preemergence) | Plant response rating, Kochia [13, 23] | Plant response rating, Kochia [13, 25] | Plant response rating (0 to 100), Kochia ([13]; preemergence) | Plant response rating, Kochia [13, 26] | Plant response rating, Surinam grass [14, 23] | Plant response rating, Surinam grass [14, 25] | Plant response rating (0 to 100), Surinam grass ([14]; preemergence) | Plant response rating, Surinam grass [14, 26] | Plant response rating, Johnsongrass [18, 23] | Plant response rating, Johnsongrass [18, 25] | Plant response rating (0 to 100), Johnsongrass ([18]; preemergence) | Plant response rating, Johnsongrass [18, 26] | Plant response rating, Crabgrass [19, 23] | Plant response rating, Crabgrass [19, 25] | Plant response rating (0 to 100), Crabgrass ([19]; preemergence) | Plant response rating, Crabgrass [19, 26] | Plant response rating, Goosegrass [20, 23] | Plant response rating, Goosegrass [20, 25] | Plant response rating (0 to 100), Goosegrass ([20]; preemergence) | Plant response rating, Goosegrass [20, 26] | Plant response rating, Pigweed [21, 23] | Plant response rating, Pigweed [21, 25] | Plant response rating (0 to 100), Pigweed ([21]; preemergence) | Plant response rating, Pigweed [21, 26]
